Measurements taken from patent US4782081A, “Compounds and methods useful for the synthesis of thromboxane A2” (priority 1986, dated 1988).
“And” between values parts separate entries of the source, which are not always exact repeats. Equal entries are not always repeated. “Also recorded” adds a separate entry of the source. Structures can show the parent of a compound that is named as a salt.

What was measured:
[1] = tested on: vascular tissue (rabbit aorta, pulmonary, mesenteric, celiac arteries and bovine coronary arteries); assay: contraction of Krebs superfused vascular tissue; assay type: cell-based; settings: for constriction of vascular tissue versus natural TXA2 / contraction of vascular tissue: rabbit aorta, pulmonary; for constriction of vascular tissue versus natural TXA2: mesenteric and celiac arteries; for contraction of vascular tissue: mesenteric, celiac arteries and bovine coronary arteries
Protocol: (§1) On most tissues 2-3 ng of TXA2 S was the threshold dose for contraction, generating more than 2 g of tension with rabbit aorta and 4 g of tension with bovine coronary arteries.

[2] = biological activity (biological properties of TXA2) in a variety of assays
Protocol: (§2) TXA2 S was also prepared by saponifiction of H2 (X=H) with Me3 SiOK (10) in tetrahydrofuran and isolated as an amorphous solid by solvent evaporation.

[3] = tested on: thromboxane synthetase or cyclooxygenase
[4] = tested on: human neutrophils; assay: aggregation of human neutrophils; assay type: cell-based
[5] = tested on: human platelet rich plasma (PRP); assay: aggregation of human platelet rich plasma (PRP); assay type: cell-based
Source text: (§3) TXA2 S at concentrations of 16-100 nanograms/ml caused a concentration-dependent aggregation of human platelet rich plasma (PRP). Irreversible aggregation occurred with 50-100 nanograms TXA2 S/ml for all cases examined. […] These comparative potencies concur with published data. […] The aggregatory effects of TXA2 S were confined to platelets.

[6] = chemical stability and storage stability; assay type: physicochemical
Protocol: The salts of TXA2 were stable for more than one week when stored at -20 C. either as isolated solids or in basic methanol or tetrahydrofuran solution.
To a vile containing 1 mg (0.003 mmol) H1 in 0.050 ml (d4 -)methanol was immediately added 0.0025 ml of a 0.12M solution of NaOH(D) in (D)H2 O under nitrogen. […] Such solutions were diluted and used for biological testing and could be stored for at least a week at -20° C. without significant loss in biological activity.
as §2

[7] = half-life in Krebs solution at 37° C. (bioassay on vascular tissue); assay type: physicochemical; settings: leading to TXB2
Protocol: Radioimmunoassay determinations of hydrolyzed TXA2 yielded values of 84±21, 60±16, 39±11, and 25±8 picograms TXB2 (mean±S.D at 95% confidence, n=3) which correspond with predicted values of 125, 62, 31, and 15 picograms, respectively. The half-life of TXA2 S at 37° C. in Krebs solution measured by bioassay on vascular tissue was 30 seconds which compares very closely with previously reported half-lives for biologically generated material. (1, 12)

[8] = tested on: platelets; assay: inhibition of TXA2 S induced platelet aggregation; assay type: cell-based, human
[9] = tested on: rabbit celiac arteries; assay: response of rabbit celiac arteries; assay type: cell-based
Protocol: as §1

[10] = indirect methods; refs (14), (15); listed as biologically generated material; cited from earlier work
[11] = tested on: vascular tissue (rabbit aorta, pulmonary, mesenteric, celiac arteries and bovine coronary arteries); settings: generated by platelets or a partially purified platelet enzyme; cited from earlier work
[12] = tested on: rabbit mesenteric arteries; assay: response of rabbit mesenteric arteries; assay type: cell-based
Protocol: as §1

[13] = 37° C., pH 7.4; refs (1,3); cited from earlier work
[14] = tested on: rabbit celiac arteries; settings: ref (19); cited from earlier work
[15] = tested on: rabbit mesenteric arteries; settings: ref (19); cited from earlier work
[16] = tested on: rabbit aorta; assay: contraction of Krebs superfused rabbit aorta; assay type: cell-based; settings: threshold dose 2-3 ng
Protocol: as §1

[17] = in vitro; assay type: in vitro ADME; settings: human, plasma
Source text: as §3

[18] = tested on: leukotriene B4; assay: stimulation of leukotriene B4 formation; assay type: cell-based, human; settings: 2 ug/ml
[19] = tested on: bovine coronary arteries; assay: contraction of Krebs superfused bovine coronary arteries; assay type: cell-based; settings: threshold dose 2-3 ng
Protocol: as §1

CCCCCC(O)C=CC1OC2CC(O2)C1CC=CCCCC(=O)O (stereo not drawn) [sodium salt of A, Thromboxane A2 Sodium]
constriction of vascular tissue versus natural TXA2 [1]: indistinguishable from natural TXA2 | biological activity [2]: marked activity | resistance to inhibition by selective thromboxane synthetase or cyclooxygenase inhibitors versus natural TXA2 [3]: indistinguishable from natural TXA2 | aggregation of neutrophils [4]: not neutrophils | comparative potency in aggregating human platelets versus natural TXA2 [5]: indistinguishable from natural TXA2 | storage without significant loss in biological activity ([6]; -20° C., methanol/water saponification solution): at least a week | half-life in Krebs medium/solution [7]: 30 s

CCCCCCC=CC1C2CC(N=N2)C1CC=CCCCC(=O)O (stereo not drawn) [Compound U-51605, 9,11-diazo-prosta-5,13-dienoic acid]
TXA2-induced aggregation ([8]; inhibitor at 1-3 ug/ml): inhibited TXA2 -induced aggregation in a concentration-dependent manner

CCCCCC(O)C=CC1OC2CC(O2)C1CC=CCCCC(=O)O (stereo not drawn) [free acid]
stability of free acid in aprotic solvents ([6]; deuterochloroform, elimination to the enol ether): underwent elimination to the corresponding enol ether over the course of several hours

CCCCC[C@H](O)/C=C/[C@H]1O[C@H]2C[C@H](O2)[C@@H]1C/C=C\CCCC(=O)O [A, Thromboxane A2]
biological assays versus platelet-derived TXA2 [2]: indistinguishable from platelet-derived TXA2

CCCCCC1C=CC2OC3CC(O3)C2CC=CCCCC(=O)O1 (stereo not drawn) [Compound H2, 1,15-Anhydro Thromboxane A2]
biological activity [2]: did not show the biological properties of TXA2; also recorded: biologically inactive

CCCCC[C@H](O)/C=C/[C@H]1O[C@H]2C[C@H](O2)[C@@H]1C/C=C\CCCC(=O)O [TXA2, thromboxane A2]
response of rabbit celiac arteries [9]: only constriction | contraction of vascular tissue [1]: contracted all vascular tissue tested | half-life in plasma, biologically generated material [10]: 3 minutes and 5-6 minutes | vascular contracting activity [11]: potent vaxcular contracting activity | response of rabbit mesenteric arteries [12]: only constriction | T1/2 in aqueous Krebs medium [13]: 32 s | hydrolysis to TXB2 ([6]; aqueous high salt, neutral pH buffers): rapidly hydrolyzed to TXB2 | stability at high pH ([6]; high pH): appreciably enhanced at high pH

CCCCC[C@H](O)/C=C/[C@@H]1[C@@H](C/C=C\CCCC(=O)O)[C@@H]2C[C@H]1OO2 [PGH2]
response of rabbit celiac arteries to PGH2 [14]: small, short-lived contraction, followed by larger, longer lasting relaxation | response of rabbit mesenteric arteries to PGH2 [15]: small, short-lived contraction, followed by larger, longer lasting relaxation

CCCCCCC=CC1C2CC(NO2)C1CC=CCCCC(=O)O (stereo not drawn) [Compound U-54701, 9,11-iminoepoxy-prosta-5,13-dienoic acid]
platelet aggregation induced by TXA2 S ([8]; inhibitor at 5-15 ug/ml): no effect

CCCCC[C@H](O)/C=C/[C@H]1O[C@H]2C[C@H](O2)[C@@H]1C/C=C\CCCC(=O)O [TXA2 S, Thromboxane A2]
response of rabbit celiac arteries [9]: only constriction | tension generated, rabbit aorta [16]: more than 2 g | potency versus biologically produced TXA2 ([1]; TXA2 calculated from PGH2 originally in the incubation, assuming 100% conversion): compared well with the activity of biologically produced TXA2 | contraction of vascular tissue [1]: contracted all vascular tissue tested | biological activity [2]: did exhibit biological properties | biological activity after hydrolysis ([2]; 0.1M phosphate buffer, pH 7.4): eliminated its biological activity | half-life [17]: 234 s | response of rabbit mesenteric arteries [12]: only constriction | stimulation of formation of leukotriene B4 [18]: nor did it stimulate formation of leukotriene B4 | aggregation of human neutrophils ([4]; 2 ug/ml): did not aggregate human neutrophils | concentration causing concentration-dependent aggregation of human PRP [5]: 16-100 nanograms/ml | potency relative to PGH2 at inducing aggregation of human PRP [5]: approximately 10 times | concentration causing irreversible aggregation ([5]; all cases examined): 50-100 nanograms/ml | storage without significant loss in activity ([6]; -20° C., basic saponification solutions): up to a week | stability in basic saponification solutions ([6]; basic saponification solutions): relatively stable | stability in neutral or acidic solutions ([6]; neutral or acidic solutions): rapid decomposition | tension generated, bovine coronary arteries [19]: > 4 g | half-life ([7]; krebs medium): 30 s

CCCCCC(O)C=CC1OC2CC(O2)C1CC=CCCCC(=O)O (stereo not drawn) [potassium salt of A, Thromboxane A2 Potassium]
constriction of vascular tissue versus natural TXA2 [1]: indistinguishable from natural TXA2 | resistance to inhibition by selective thromboxane synthetase or cyclooxygenase inhibitors versus natural TXA2 [3]: indistinguishable from natural TXA2 | aggregation of neutrophils [4]: not neutrophils | comparative potency in aggregating human platelets versus natural TXA2 [5]: indistinguishable from natural TXA2 | half-life in Krebs medium/solution [7]: 30 s
